*: point of attachment. CH2F = FC*
Columns and labels:
[1] = test system: SNAIL1 in 769-P cells; assay: SNAIL1 protein expression (western blot), 769-P; type: cell-based, human; details: 72 h
Method: These properties could be the result of the modulation of the effectors controlling EMT, as previously shown in other tumor models. To test this hypothesis, the cells were treated with the inhibitors for 24, 48, and 72 h by changing the media every day, and they were tested for E-cadherin and SNAIL1 expression (Figure 6; detail information of western blots can be seen in Supplementary Figure S7). Figure 6 Effects of the peptides on E-cadherin and SNAIL1 protein expression: (a,b) protein expression of E-cadherin and SNAIL1 in 769-P and (c,d) A498 cells after 24, 48, and 72 h of treatment with the peptides. Data are represented as mean ± SD of at least three replicates. Significance was calculated through one-way ANOVA, followed by Dunnet’s test. Cells were seeded in RPMI containing 10% FBS and cultured for 24 h. Next, 30 µM of inhibitors were added to the culture medium and incubated for 24, 48, and 72 h. Control cells were treated with 0.01% DMSO. At all time points the samples were lysed in 50 mM Tri-HCl (pH 8.0), 100 mM NaCl, 0.5% NP-40, 1% Triton X-100, 1× protease inhibitor cocktail (ThermoFisher, Waltham, MA, USA). The 50 µg of protein lysates were separated by electrophoresis on a 12% SDS-PAGE gel and transferred to the PFDF membranes. […] After an additional wash (three times with PBS), reactive bands were detected by chemiluminescence (Bio-Rad, Irvine, CA, USA). […]

[2] = test system: LAMP-1 in 769-P cells; assay: LAMP-1 expression (confocal microscopy), 769-P; type: cell-based, human; details: 20 μM
Method: Figure 7 Effect of the peptides on LAMP-1 protein expression: (a) Western blotting analysis of LAMP-1 after treatment with PLVE and VLPE (20 μM) for 24, 48, and 72 h in 769-P cells. (b) Confocal microscopy evaluation of LAMP-1 expression after 48 and 72 h of treatment with PLVE and VLPE (20 μM) in 769-P cells. (c) Western blotting analysis of LAMP-1 after treatment with PLVE and VLPE (20 μM) for 24, 48, and 72 h in A498 cells. (d) Confocal microscopy evaluation of LAMP-1 expression after 48 and 72 h of treatment with PLVE and VLPE (20 μM) in A498 cells. Data are represented as mean ± SD of at least three replicates. Significance was calculated through one-way ANOVA followed by Dunnet’s test. * = p < 0.05, ** = p < 0.01, *** = p < 0.001. The cells were treated for 48 and 72 h, then were fixed in 4% PFA/PBS for 15 min and permeabilized in 0.25% Triton®X-100 for 10 min. After blocking the non-specific sites in 2% BSA/PBS-T, the immunofluorescence was performed overnight with primary antibody anti-LAMP-1 (1:100, Abcam, Eugene, OR, USA) incubation, followed by incubation with the appropriate fluorophore-labeled secondary antibody Donkey anti-Rabbit IgG (H+L) ReadyProbes™, Alexa Fluor 488 (1:500; ThermoFisher, USA). The cells were then counterstained with nuclear dye DAPI and visualized under a fluorescent and/or confocal microscope (Olympus BX51, Shinjuku, Tokyo, Japan, and AxioObserver Z1, Zeiss, Oberkochen, Germany) using oil-immersion lenses.

[3] = test system: A498 cells (endolysosomal compartment); assay: Neutral red assay (endolysosomal integrity), A498; type: cell-based, human; details: 2.5–250 μM; 48 h
Method: Figure S6. The effect of the peptide inhibitors on human 769‐P and A498 renal cancer cell on
lysosomes integrity. (a) 769‐P and (b) A498 cells were treated with increasing doses of Ac‐PLVE‐FMK
(red bars) and Ac‐VLPE‐FMK (blue bars) (2.5–250 μM). NR uptake was measured after 24, 48, and 72
h via MTT assay. (c) LysoTracker red evaluation in 769‐P and (d) A498 cells after 24, 48, and 72 h with
the inhibitors (20 μM). Data represent the mean (± S.D.) of at least three independent experiments,
each performed in triplicate.

[4] = Dispersibility in water; type: physicochemical

Row | Dispersibility in water [4] | Substance | SNAIL1 protein expression [1] | LAMP-1 expression (confocal) ([2]; 48 h) | LAMP-1 expression (confocal) ([2]; 72 h) | Neutral red uptake [3]
1 | easily dispersed in water | Ac-PLVE-CH2F [Ac-PLVE-FMK] | increased significantly at 72 h only in the case of 769P cells treated with AC-PLVE-FMK | increased LAMP-1 expression | the content of LAMP-1 decreased towards control levels | decreasing
2 | easily dispersed in water | Ac-VLPE-CH2F [Ac-VLPE-FMK] | dropped to values more similar to the control | increased LAMP-1 expression | the content of LAMP-1 decreased towards control levels | decreasing
